Legend:
huPPARα [1] = biological target: T1, huPPARα (Homo sapiens, UniProt Q07869); assay: DNA-dependent binding (ABCD binding) using SPA technology, huPPARα; conditions: SPA displacement of tritium-labeled PPARα agonist radioligand
T1 sequence (Q07869 1-468): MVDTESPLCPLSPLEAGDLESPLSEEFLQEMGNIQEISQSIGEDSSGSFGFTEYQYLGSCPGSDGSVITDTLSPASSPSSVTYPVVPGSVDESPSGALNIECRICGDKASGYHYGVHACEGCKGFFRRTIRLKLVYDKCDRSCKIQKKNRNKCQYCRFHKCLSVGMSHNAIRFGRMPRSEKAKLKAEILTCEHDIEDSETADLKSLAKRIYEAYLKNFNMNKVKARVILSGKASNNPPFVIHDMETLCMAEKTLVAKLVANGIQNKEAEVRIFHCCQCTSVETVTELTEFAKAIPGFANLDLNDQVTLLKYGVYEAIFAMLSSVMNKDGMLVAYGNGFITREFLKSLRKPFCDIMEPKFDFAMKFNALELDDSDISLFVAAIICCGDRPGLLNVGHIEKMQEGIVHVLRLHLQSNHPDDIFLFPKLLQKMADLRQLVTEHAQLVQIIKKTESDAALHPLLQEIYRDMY
T1 sequence (P19793 1-462 partner): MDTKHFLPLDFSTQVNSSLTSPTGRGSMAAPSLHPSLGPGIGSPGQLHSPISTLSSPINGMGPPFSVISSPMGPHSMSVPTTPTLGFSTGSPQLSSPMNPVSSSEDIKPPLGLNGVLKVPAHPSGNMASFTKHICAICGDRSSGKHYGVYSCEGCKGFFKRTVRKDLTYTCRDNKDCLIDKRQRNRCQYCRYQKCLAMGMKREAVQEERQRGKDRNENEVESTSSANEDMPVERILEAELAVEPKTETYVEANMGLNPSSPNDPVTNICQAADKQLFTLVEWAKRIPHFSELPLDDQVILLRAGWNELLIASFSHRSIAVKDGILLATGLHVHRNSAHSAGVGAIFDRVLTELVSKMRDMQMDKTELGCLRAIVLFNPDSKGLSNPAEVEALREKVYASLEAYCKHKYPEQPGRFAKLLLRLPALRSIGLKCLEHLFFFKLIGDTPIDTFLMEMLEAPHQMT
Experimental: (§1) DNA-dependent binding (ABCD binding) was carried out using SPA technology with PPAR receptors. Tritium-labeled PPARα and PPARγ agonists were used as radioligands for generating displacement curves and IC50 values with compounds of the invention. Cotransfection assays were carried out in CV-1 cells. The reporter plasmid contained an acylCoA oxidase (AOX) PPRE and TK promoter upstream of the luciferase reporter cDNA. Appropriate PPARs and RXRα were constitutively expressed using plasmids containing the CMV promoter. […] In order to eliminate such interference, a GAL4 chimeric system was used in which the DNA binding domain of the transfected PPAR was replaced by that of GAL4, and the GAL4 response element was utilized in place of the AOX PPRE. Cotransfection efficacy was determined relative to PPARα agonist and PPARγ agonist reference molecules. Efficacies were determined by computer fit to a concentration-response curve, or in some cases at a single high concentration of agonist (10 μM). For binding or cotransfection studies with receptors other than PPARs, similar assays were carried out using appropriate ligands, receptors, reporter constructs, etc., for that particular receptor.
(§2) These studies were carried out to evaluate the ability of compounds of the invention to bind to and/or activate various nuclear transcription factors, particularly huPPARα (“hu” indicates “human”) and huPPARγ. These studies provide in vitro data concerning efficacy and selectivity of compounds of the invention. Furthermore, binding and cotransfection data for compounds of the invention were compared with corresponding data for marketed compounds that act on either huPPARα or huPPARγ.

huPPARγ [2] = biological target: T2, huPPARγ (Homo sapiens, UniProt P37231); assay: DNA-dependent binding (ABCD binding) using SPA technology, huPPARγ; conditions: SPA displacement of tritium-labeled PPARγ agonist radioligand
T2 sequence (P37231 1-505): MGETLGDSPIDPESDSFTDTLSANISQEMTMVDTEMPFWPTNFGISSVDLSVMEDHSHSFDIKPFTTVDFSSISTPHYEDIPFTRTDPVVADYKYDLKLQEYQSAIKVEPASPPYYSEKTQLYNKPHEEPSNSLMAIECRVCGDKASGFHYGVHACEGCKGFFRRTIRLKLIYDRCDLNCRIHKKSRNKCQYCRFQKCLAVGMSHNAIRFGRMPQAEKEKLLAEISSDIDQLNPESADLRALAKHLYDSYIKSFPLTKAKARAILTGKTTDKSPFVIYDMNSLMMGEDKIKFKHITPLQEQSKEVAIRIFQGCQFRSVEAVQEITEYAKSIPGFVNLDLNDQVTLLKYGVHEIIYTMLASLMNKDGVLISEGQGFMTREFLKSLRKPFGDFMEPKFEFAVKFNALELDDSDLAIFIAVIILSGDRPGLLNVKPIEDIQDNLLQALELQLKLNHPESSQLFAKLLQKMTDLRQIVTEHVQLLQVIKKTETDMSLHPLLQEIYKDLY
T2 sequence (P19793 1-462 partner): T1 sequence (P19793 1-462 partner)
Experimental: as §1, §2

huPPARα [3] = assay: Cotransfection assay in CV-1 cells, huPPARα; format: cell-based, human; conditions: GAL4 chimeric system, relative to PPARα agonist reference molecule
Procedure, shortened: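 Binding: SPA displacement of tritiated PPARα or PPARγ agonist, giving IC50. Cotransfection: CV-1 cells with CMV-driven PPAR and RXRα, luciferase reporter (AOX PPRE/TK or GAL4 chimera); efficacy relative to PPARα or PPARγ reference agonists, from curve fit or at 10 μM.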

huPPARγ [4] = biological target: T2, huPPARγ; assay: Cotransfection assay in CV-1 cells, huPPARγ; format: cell-based; design: Appropriate PPARs and RXRα were constitutively expressed using plasmids containing the CMV promoter; expressed in transfected cells; host or cells: CV-1 cells; conditions: AOX PPRE luciferase reporter, relative to PPARγ agonist reference molecule, read-out: huPPARγ CTF Efficacy
Experimental: as §1, §2

IC50 (huPPARα [1])	IC50 (huPPARγ [2])	Emax (huPPARγ [4])	SMILES	huPPARα CTF Efficacy (huPPARα [3])
62 nM	76 nM	61%	Cc1oc(C2CCCCC2)nc1CCOc1ccc(CC(C)(Oc2ccc(C(F)(F)F)cc2)C(=O)O)cc1 (stereo not shown) [Example 52, 3-{4-[2-(2-Cyclohexyl-5-methyl-oxazol-4-yl)-ethoxy]-phenyl}-2-methyl-2-(4-trifluoromethyl-phenoxy)-propionic acid]	108%
60 nM	66 nM	41%	Cc1oc(C2CCCCC2)nc1CCOc1ccc(CC(C)(Oc2ccc(F)c(F)c2)C(=O)O)cc1 (stereo not shown) [Example 58, 3-{4-[2-(2-Cyclohexyl-5-methyl-oxazol-4-yl)-ethoxy]-phenyl}-2-(3,4-difluoro-phenoxy)-2-methyl-propionic acid]	149%
64 nM	84 nM	12%	Cc1cccc(OC(C)(Cc2ccc(OCCc3nc(-c4cccs4)oc3C)cc2)C(=O)O)c1 (stereo not shown) [Example 61, 2-Methyl-3-{4-[2-(5-methyl-2-thiophen-2-yl-oxazol-4-yl)-ethoxy]-phenyl}-2-m-tolyloxy-propionic acid]	52%
58 nM	79 nM	35%	Cc1cccc(OC(C)(Cc2ccc(OCCc3nc(C4CCCCC4)oc3C)cc2)C(=O)O)c1 (stereo not shown) [Example 62, 3-{4-[2-(2-Cyclohexyl-5-methyl-oxazol-4-yl)-ethoxy]-phenyl}-2-methyl-2-m-tolyloxy-propionic acid]	101%
67 nM	112 nM	11%	Cc1oc(-c2cccs2)nc1CCOc1ccc(CC(C)(Oc2ccc(F)cc2)C(=O)O)cc1 (stereo not shown) [Example 64, 2-(4-Fluoro-phenoxy)-2-methyl-3-{4-[2-(5-methyl-2-thiophen-2-yl-oxazol-4-yl)-ethoxy]-phenyl}-propionic acid]	50%
71 nM	82 nM	24%	Cc1oc(C2CCCCC2)nc1CCOc1ccc(CC(C)(Oc2ccc(F)cc2)C(=O)O)cc1 (stereo not shown) [Example 65, 3-{4-[2-(2-Cyclohexyl-5-methyl-oxazol-4-yl)-ethoxy]-phenyl}-2-(4-fluoro-phenoxy)-2-methyl-propionic acid]	46%
61 nM	65 nM	11%	Cc1oc(C2(C)CCCCC2)nc1CCOc1ccc(C[C@](C)(Oc2ccc(F)cc2)C(=O)O)cc1 [Example 67, (S)-2-(4-Fluoro-phenoxy)-2-methyl-3-(4-{2-[5-methyl-2-(1-methyl-cyclohexyl)-oxazol-4-yl]-ethoxy}-phenyl)-propionic acid]	34%
78 nM	81 nM	50%	Cc1oc(-c2cccs2)nc1CCOc1ccc(CC(C)(Oc2cccc(C(F)(F)F)c2)C(=O)O)cc1 (stereo not shown) [Example 71, 2-Methyl-3-{4-[2-(5-methyl-2-thiophen-2-yl-oxazol-4-yl)-ethoxy]-phenyl}-2-(3-trifluoromethyl-phenoxy)-propionic acid]	142%
76 nM	83 nM	24%	COc1cccc(OC(C)(Cc2ccc(OCCc3nc(C4CCCCC4)oc3C)cc2)C(=O)O)c1 (stereo not shown) [Example 76, 3-{4-[2-(2-Cyclohexyl-5-methyl-oxazol-4-yl)-ethoxy]-phenyl}-2-(3-methoxy-phenoxy)-2-methyl-propionic acid]	63%
75 nM	89 nM	17%	Cc1oc(-c2ccccc2)nc1CCOc1ccc(CC(C)(Oc2ccc3c(c2)OCO3)C(=O)O)cc1 (stereo not shown) [Example 78, 2-(Benzo[1,3]dioxol-5-yloxy)-2-methyl-3-{4-[2-(5-methyl-2-phenyl-oxazol-4-yl)-ethoxy]-phenyl}-propionic acid]	52%
76 nM	80 nM	30%	Cc1oc(C2CCCCC2)nc1CCOc1ccc(CC(C)(Oc2ccc3c(c2)OCO3)C(=O)O)cc1 (stereo not shown) [Example 80, 2-(Benzo[1,3]dioxol-5-yloxy)-3-{4-[2-(2-cyclohexyl-5-methyl-oxazol-4-yl)-ethoxy]-phenyl}-2-methyl-propionic acid]	84%
55 nM	72 nM	7%	Cc1oc(CCc2ccccc2)nc1CCOc1ccc(C[C@](C)(Oc2ccccc2)C(=O)O)cc1 [Example 86, (S)-2-Methyl-3-{4-[2-(5-methyl-2-phenethyl-oxazol-4-yl)-ethoxy]-phenyl}-2-phenoxy-propionic acid]	24%
215 nM	51 nM	62%	Cc1oc(-c2ccccc2)nc1CCCc1ccc(CC(C)(Oc2ccccc2)C(=O)O)s1 (stereo not shown) [Example 91, 2-Methyl-3-{5-[3-(5-methyl-2-phenyl-oxazol-4-yl)-propyl]-thiophen-2-yl}-2-phenoxy-propionic acid]	47%
